According to patent US11485751B2, “Apramycin derivatives” (WAYNE STATE UNIVERSITY, priority 2017, dated 2022):
≈ marks a conversion by molar mass, not a printed value.

Key:
[1] = tested on: AG042 MRSA AAC(6′)-I ANT(4′)-I APH(2′); assay: Antibacterial activity, clinical isolate AG042; type: cell-based; parameters: unit not given here
Outline: (§1)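 MIC values were determined by broth microdilution following the CLSI standard method for dilution susceptibility testing of aerobically growing bacteria.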

[2] = tested on: K. pneum. AG269 AAC(3)-II AAC(6′)-I rmtB; assay: Activity against G1405-methylated 16S-rRNA, clinical isolate AG269; type: cell-based
Outline: (§2)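 Read-out is the minimal inhibitory concentration, obtained in broth microdilution run according to CLSI guidelines (M07-A10).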

[3] = tested on: clinical isolates carrying APH(3′)-VI; assay: MIC broth microdilution, APH(3′)-VI; type: cell-based; settings: IMM Univ. Zurich
AG055 E. coli WT = assay: Antibacterial activity, clinical isolate AG055; type: cell-based; parameters: unit not given here
Outline: as §1

[4] = tested on: A baum. AG227 APH(3′)-I armA; assay: Activity against G1405-methylated 16S-rRNA, clinical isolate AG227; type: cell-based
Outline: as §2

[5] = tested on: AG215, Klebsiella pneumonia; assay: MIC reference strain AG215; type: cell-based; settings: Klebsiella pneumoniae, reference strain; read-out: MIC AG215 K. pneumonia
Outline: (§3)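 MICs were determined by broth microdilution following CLSI guidelines for aerobically growing bacteria.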

AG001 E. coli WT = assay: Antibacterial activity, clinical isolate AG001; type: cell-based; parameters: unit not given here
Outline: as §1

[6] = tested on: clinical isolates carrying APH(3′)-III; assay: MIC broth microdilution, APH(3′)-III; type: cell-based; settings: IMM Univ. Zurich
Description: (§4) Minimal inhibitory concentrations (MIC) have been determined by broth microdilution assays (CLSI. Methods for Dilution Antimicrobial Susceptibility Tests for Bacteria That Grow Aerobically; Approved Standard—Tenth Edition. CLSI document M07-A10. Wayne, Pa.: Clinical and Laboratory Standards Institute; 2015.).
Minimal inhibitory concentrations (MICs, […]) against clinical isolates from Institute of Medical Microbiology, Univ. Zurich, and the IC50 values for bacterial, human mitochondrial and human cytosolic ribosomes are indicated.

[7] = tested on: Enterob. AG302 AAC(3)-II AAC(6′)-I rmtC; assay: Activity against G1405-methylated 16S-rRNA, clinical isolate AG302; type: cell-based
Outline: as §2

AG038 MRSA = assay: Antibacterial activity, clinical isolate AG038; type: cell-based; parameters: unit not given here
Outline: as §1

[8] = tested on: E. coli AG153 AAC(3)-II APH(3′)-II rmtB; assay: Activity against G1405-methylated 16S-rRNA, clinical isolate AG153; type: cell-based
Outline: as §2

AG163 E. coli APH(3′)-I = assay: Antibacterial activity, clinical isolate AG163; type: cell-based
Outline: as §1

[9] = tested on: AG039 MRSA AAC(6′)-I ANT(4′)-I; assay: Antibacterial activity, clinical isolate AG039; type: cell-based
Outline: as §1

AG031 P. aer. APH(3′)-II = assay: Antibacterial activity, clinical isolate AG031; type: cell-based; parameters: unit not given here
Outline: as §1

[10] = tested on: clinical isolates carrying APH(3′)-I; assay: MIC broth microdilution, APH(3′)-I; type: cell-based; settings: IMM Univ. Zurich
[11] = tested on: AG212, Escherichia coli ATCC25922; assay: MIC reference strain AG212; type: cell-based; settings: Escherichia coli; reference strain ATCC25922; read-out: MIC AG212 E. coli
Outline: as §3

ATCC19977 M. abcessus = assay: MIC reference strain ATCC19977; type: cell-based; settings: read-out: MIC ATCC19977 M. abcessus
Outline: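 Values are minimal inhibitory concentrations, obtained by serial dilution of compound in broth according to CLSI guidance for aerobes.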

[12] = tested on: APH(3′, 5″) resistance determinant; assay: Susceptibility to the APH(3′, 5″) resistance determinant; type: cell-based
Description: as §4
The introduction of a formamido group results in compounds that display increased selectivity for the bacterial ribosome over the mitochondrial (wild type and A1555G mutant) ribosomes, predictive of reduced ototoxicity.

[13] = tested on: AG225, Acinetobacter baumannii pittii; assay: MIC reference strain AG225; type: cell-based; settings: Acinetobacter baumannii, reference strain; read-out: MIC AG225 A. baumannii
Outline: as §3

[14] = tested on: Engineered E. coli AG103 armA; assay: Activity against G1405-methylated 16S-rRNA, E. coli AG103 armA; type: cell-based
Outline: as §2

[15] = tested on: Engineered E. coli pH426 rmtC; assay: Activity against G1405-methylated 16S-rRNA, E. coli pH426 rmtC; type: cell-based
Outline: as §2

AG032 P. aer. APH(3′)-II = assay: Antibacterial activity, clinical isolate AG032; type: cell-based; parameters: unit not given here
Outline: as §1

[16] = tested on: clinical isolates carrying APH(3′)-II; assay: MIC broth microdilution, APH(3′)-II; type: cell-based; settings: clinical isolates, IMM Univ. Zurich; APH(3′)-II; read-out: MIC APH(3′)-II
eukaryotic ribosomes = assay: in-vitro translation assays, bacterial versus eukaryotic ribosomes; type: biochemical
Description: IC50 values for bacterial, human chimeric, and rabbit reticulocyte ribosomes have been determined by in-vitro translation assays as described previously (Proc. Nat. Ac. Sci USA 2012, 109(27):10984-10989).

[17] = tested on: AG220, Pseudomonas aeruginosa ATCC27853; assay: MIC reference strain AG220; type: cell-based; settings: Pseudomonas aeruginosa, ATCC27853, reference strain ATCC27853; read-out: MIC AG220 P. aeruginosa
Outline: as §3

AG173 E. coli AAC(3)-IV = assay: Antibacterial activity, clinical isolate AG173; type: cell-based
Outline: as §1

bacterial ribosomes = assay: in-vitro translation assay, bacterial ribosomes; type: biochemical
Outline: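 Inhibitory potency was determined as IC50 in in-vitro translation systems based on bacterial ribosomes, human chimeric (mitochondrial-type) ribosomes or rabbit reticulocyte (cytosolic) ribosomes.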

AG003 E. coli AAC(3)-II = assay: Antibacterial activity, clinical isolate AG003; type: cell-based
Outline: as §1

[18] = tested on: human mitochondrial ribosomes; assay: in-vitro translation assay, human mitochondrial (human chimeric) ribosomes; type: biochemical
Outline: (§5)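 Each ribosome preparation (bacterial, human chimeric as the mitochondrial model, rabbit reticulocyte as the cytosolic model) drives in-vitro translation with the test compound present. Inhibition of translation gives the IC50.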

[19] = tested on: human cytosolic ribosomes; assay: in-vitro translation assay, human cytosolic ribosomes; type: biochemical
Outline: as §5

[20] = tested on: AG290, Enterobacter cloacae; assay: MIC reference strain AG290; type: cell-based; settings: Enterobacter cloacae; reference strain; read-out: MIC AG290 E. cloacae
Outline: as §3

[21] = tested on: AG033 P. aer. APH(3′)-II AAC(6′)-I; assay: Antibacterial activity, clinical isolate AG033; type: cell-based; parameters: unit not given here
Outline: as §1

[22] = tested on: clinical isolates carrying AAC(3)-IV; assay: MIC broth microdilution, AAC(3)-IV; type: cell-based
Outline: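 MICs obtained by broth microdilution following CLSI M07-A10, tested against clinical isolates from the Institute of Medical Microbiology, Univ. Zurich; values in μg/ml.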

[23] = tested on: Engineered E. coli pH430 WT; assay: Activity, engineered E. coli pH430 WT; type: cell-based; settings: wild type
Outline: as §2

[24] = tested on: Engineered E. coli pH425 rmtB; assay: Activity against G1405-methylated 16S-rRNA, E. coli pH425 rmtB; type: cell-based
Outline: as §2

[25] = tested on: Engineered E. coli pH424 armA; assay: Activity against G1405-methylated 16S-rRNA, E. coli pH424 armA; type: cell-based
Outline: as §2

[26] = tested on: Engineered E. coli pH427 rmtF; assay: Activity against G1405-methylated 16S-rRNA, E. coli pH427 rmtF; type: cell-based
Outline: as §2

Q: For `CNC1C(OC2OC(CO)C(N)C(O)C2O)OC2CC(N)C(OC3C(N)CC(N)C(O)C3OC3OC(CO)C(OCCN)C3O)OC2C1O` [DC124, 5-O-β-(3′″-O-(2-Aminoethyl)-D-ribofuranosyl) apramycin], which “Antibacterial activity AG042 MRSA AAC(6′)-I ANT(4′)-I APH(2′)” value [1] is on record?
A: The value was 8.

Q: What about the “Activity K. pneum. AG269 AAC(3)-II AAC(6′)-I rmtB” value [2] of the same compound?
A: The value was 2.

Q: What about the MIC [3] of the same compound?
A: The MIC was 4 µg/mL (≈ 5.6 µM).

Q: And the “Antibacterial activity AG055 E. coli WT” value (AG055 E. coli WT)?
A: The value was 8.

Q: What about the “Activity A baum. AG227 APH(3′)-I armA” value [4] of the same compound?
A: The value was 16.

Q: What about the MIC [5] of the same compound?
A: Its MIC is 1 to 2 µg/mL.

Q: And the “Antibacterial activity AG001 E. coli WT” value (AG001 E. coli WT)?
A: Its value is 8.

Q: What about the MIC [6] of the same compound?
A: Its MIC is 0.5 µg/mL (≈ 0.7 µM).

Q: What about the “Activity Enterob. AG302 AAC(3)-II AAC(6′)-I rmtC” value [7] of the same compound?
A: Its value is 4.

Q: What about the “Antibacterial activity AG038 MRSA” value (AG038 MRSA) of the same compound?
A: Its value is 8-16.

Q: What about the “Activity E. coli AG153 AAC(3)-II APH(3′)-II rmtB” value [8] of the same compound?
A: Its value is 4.

Q: And the “Antibacterial activity AG163 E. coli APH(3′)-I” value (AG163 E. coli APH(3′)-I)?
A: Its value is 4-8.

Q: And the “Antibacterial activity AG039 MRSA AAC(6′)-I ANT(4′)-I” value [9]?
A: Its value is 8.

Q: What about the “Antibacterial activity AG031 P. aer. APH(3′)-II” value (AG031 P. aer. APH(3′)-II) of the same compound?
A: The value was 32-64.

Q: And the MIC [10]?
A: The MIC was 64 µg/mL (≈ 89.5 µM).

Q: What about the MIC [11] of the same compound?
A: The MIC was 2 µg/mL.

Q: And the MIC (ATCC19977 M. abcessus)?
A: The MIC was 8 µg/mL (≈ 11.2 µM).

Q: And the “susceptibility to the APH(3′, 5″) resistance determinant” value [12]?
A: Its value is “susceptible”.

Q: What about the MIC [13] of the same compound?
A: Its MIC is 8 µg/mL.

Q: What about the “Activity E. coli AG103 armA” value [14] of the same compound?
A: Its value is 0.5.

Q: And the “Activity E. coli pH426 rmtC” value [15]?
A: Its value is 2.

Q: What about the “Antibacterial activity AG032 P. aer. APH(3′)-II” value (AG032 P. aer. APH(3′)-II) of the same compound?
A: Its value is 32-64.

Q: And the MIC [16]?
A: Its MIC is 2 µg/mL (≈ 2.8 µM).

Q: And the “activity against eukaryotic ribosomes” value (eukaryotic ribosomes)?
A: The value was “only low activity”.

Q: And the “selectivity at the target level” value (eukaryotic ribosomes; bacterial versus eukaryotic ribosomes)?
A: Its value is “excellent selectivity”.

Q: What about the MIC [17] of the same compound?
A: Its MIC is 16 to 32 µg/mL.

Q: What about the “Antibacterial activity AG173 E. coli AAC(3)-IV” value (AG173 E. coli AAC(3)-IV) of the same compound?
A: The value was 4.

Q: What about the IC50 (bacterial ribosomes) of the same compound?
A: Its IC50 is 0.06 µM.

Q: What about the “Antibacterial activity AG003 E. coli AAC(3)-II” value (AG003 E. coli AAC(3)-II) of the same compound?
A: The value was 4-8.

Q: And the IC50 [18]?
A: The IC50 was 57 µM.

Q: And the IC50 [19]?
A: The IC50 was 181 µM.

Q: And the MIC [20]?
A: Its MIC is 1 to 2 µg/mL.

Q: And the “Antibacterial activity AG033 P. aer. APH(3′)-II AAC(6′)-I” value [21]?
A: The value was 128.

Q: What about the “activity against the IMM clinical isolates carrying the gene for AAC(3)-IV” value [22] of the same compound?
A: Its value is “excellent antiribosomal and antibacterial activity”.

Q: And the MIC ([22]; clinical isolates, IMM Univ. Zurich, AAC(3)-IV, read-out: MIC AAC(3)-IV)?
A: Its MIC is over 32 µg/mL.

Q: What about the “Activity E. coli pH430 WT” value [23] of the same compound?
A: Its value is 2.

Q: And the “Activity E. coli pH425 rmtB” value [24]?
A: The value was 4.

Q: And the “Activity E. coli pH424 armA” value [25]?
A: Its value is 1.

Q: And the “Activity E. coli pH427 rmtF” value [26]?
A: Its value is 2.
